Converted amounts (≈) assume the structure as drawn. Where two headings read alike, the source gives them in different places.
Legend:
E. coli = test: microbe, parasite or virus in culture; format: cell-based, Escherichia coli; settings: for MIC: read-out: MIC against E. coli
Y. pestis CO92 = format: cell-based, Yersinia pestis
Y. pestis [1] = settings: mouse, in vivo
[2] = Microsomal stability analysis; settings: mouse, liver microsomes, pH 7.4
OF-1 female mice = test: Tolerability study, 5-day intravenous regimen; settings: mouse
[3] = In vivo pharmacokinetics, single intravenous dose; settings: for half-life: female, OF-1, mouse, plasma, iv
K. pneumoniae = test: microbe, parasite or virus in culture; format: cell-based, Klebsiella pneumoniae
Enterobacter spp. = test: microbe, parasite or virus in culture; format: cell-based
P. mirabilis = test: microbe, parasite or virus in culture; format: cell-based, Proteus mirabilis
C. koseri = test: microbe, parasite or virus in culture; format: cell-based, Citrobacter koseri
C. freundii = test: microbe, parasite or virus in culture; format: cell-based, Citrobacter freundii
S. marcescens = test: microbe, parasite or virus in culture; format: cell-based, Serratia marcescens
M. morganii = test: microbe, parasite or virus in culture; format: cell-based, Morganella morganii
Yersinia spp. = test: microbe, parasite or virus in culture; format: cell-based, Y. enterocolitica and Y. pseudotuberculosis
Shigella spp. = test: microbe, parasite or virus in culture; format: cell-based
Salmonella spp = test: microbe, parasite or virus in culture; format: cell-based, Salmonella enterica
P. aeruginosa = test: microbe, parasite or virus in culture; format: cell-based, Pseudomonas aeruginosa
A. baumannii = test: microbe, parasite or virus in culture; format: cell-based, Acinetobacter baumannii
Enterobacteriaceae = test: organism not typed; format: cell-based
Y. pestis [4] = settings: cited from earlier work

With `CC(O)(C(F)F)C(NC(=O)c1ccc(C#CC#Cc2ccc(N)cc2)cc1)C(=O)NO` (stereo not shown) [LPC-058] the MIC (E. coli; Escherichia coli) was 0.025 µg/mL (≈ 0.0585 µM), the “type of antibacterial effect (kill curve)” value (Y. pestis CO92) was “bacteriostatic effect” and the “colonization of the lymph nodes, spleen, and blood relative to nontreated controls” value (Y. pestis [1]; iv, 10 mg/kg) was “significantly (P < 0.02) lower colonization”. For the same compound, the survival rate (Y. pestis [1]; iv, 10 mg/kg) was at least 80%, the half-life at 1 µM [2] was 95 min and the microsomal CLint at 1 µM [2] was 24 µL/min/mg. The “renal function (blood urea nitrogen) and hepatic function” value (OF-1 female mice; 10 mg/kg q8h, 5 days) was “normal”, the tissue damage (OF-1 female mice; 10 mg/kg q8h, 5 days) was “no tissue damage was detected” and the “histology (hematoxylin-eosin, 5-µm sections)” value (OF-1 female mice; 40 mg/kg q12h, 5 days) was “accumulation of polymorphonuclear cells in the lung and large intestine”. For the same compound, the “liver toxicity (blood alanine aminotransferase level)” value (OF-1 female mice; 40 mg/kg q12h, 5 days) was “liver toxicity”, the “plasma protein levels at the end of the 5-day regimen” value (OF-1 female mice; 5-day regimen) was “Low plasma protein levels” and the “appearance of diarrhea after the first injection” value (OF-1 female mice; 5-day regimen, regardless of regimen (10 mg/kg q8h, 20 mg/kg q12h, 40 mg/kg q12h)) was 3 days. The “AUC greater than AUC of LPC-069” value ([3]; LPC-058 single dose 20 mg/kg versus LPC-069 single dose 40 mg/kg, mouse) was “approximately 10 fold”, the half-life ([3]; 20 mg/kg) was 53 min and the tissue distribution volume ([3]; mouse, single intravenous dose of 20 mg/kg) was 1.1 L/kg.
In the case of `CC(O)(C(F)F)C(NC(=O)c1ccc(C#Cc2ccc(CN3CCOCC3)cc2)cc1)C(=O)NO` (stereo not shown) [LPC-069], the “MIC Range” value (E. coli) is reported as 0.05 to 0.4 µg/mL, the MIC50 (E. coli; Escherichia coli) is reported as 0.1 µg/mL (≈ 0.205 µM) and the MIC90 (E. coli; Escherichia coli) is reported as 0.2 µg/mL (≈ 0.41 µM). The MIC (E. coli; Escherichia coli) was 0.1 µg/mL (≈ 0.205 µM), the “MIC Range” value (K. pneumoniae) was 0.2 to 0.8 µg/mL and the MIC50 (K. pneumoniae; Klebsiella pneumoniae) was 0.4 µg/mL (≈ 0.821 µM). For the same compound, the MIC90 (K. pneumoniae; Klebsiella pneumoniae) was 0.8 µg/mL (≈ 1.64 µM), the “MIC Range” value (Enterobacter spp.) was 0.1 to 1.6 µg/mL and the MIC50 (Enterobacter spp.; Enterobacter) was 0.2 µg/mL (≈ 0.41 µM). The MIC90 (Enterobacter spp.; Enterobacter) was 0.4 µg/mL (≈ 0.821 µM), the “MIC Range” value (P. mirabilis) was 0.2 to 0.8 µg/mL and the MIC50 (P. mirabilis; Proteus mirabilis) was 0.2 µg/mL (≈ 0.41 µM). For the same compound, the MIC90 (P. mirabilis; Proteus mirabilis) was 0.4 µg/mL (≈ 0.821 µM), the “MIC Range” value (C. koseri) was 0.1 to 1.6 µg/mL and the MIC50 (C. koseri; Citrobacter koseri) was 0.4 µg/mL (≈ 0.821 µM). For the same compound, the MIC90 (C. koseri; Citrobacter koseri) was 0.4 µg/mL (≈ 0.821 µM), the “MIC Range” value (C. freundii) was 0.2 to 0.4 µg/mL and the MIC50 (C. freundii; Citrobacter freundii) was 0.2 µg/mL (≈ 0.41 µM). The MIC90 (C. freundii; Citrobacter freundii) was 0.4 µg/mL (≈ 0.821 µM), the “MIC Range” value (S. marcescens) was 0.1 to 0.4 µg/mL and the MIC50 (S. marcescens; Serratia marcescens) was 0.2 µg/mL (≈ 0.41 µM). For the same compound, the MIC90 (S. marcescens; Serratia marcescens) was 0.2 µg/mL (≈ 0.41 µM), the “MIC Range” value (M. morganii) was 0.2 to 1.6 µg/mL and the MIC50 (M. morganii; Morganella morganii) was 0.2 µg/mL (≈ 0.41 µM). The MIC90 (M. morganii; Morganella morganii) was 0.8 µg/mL (≈ 1.64 µM), the “MIC Range” value (Yersinia spp.) was 0.2 to 0.8 µg/mL and the MIC50 (Yersinia spp.; Yersinia) was 0.4 µg/mL (≈ 0.821 µM). The MIC90 (Yersinia spp.; Yersinia) was 0.8 µg/mL (≈ 1.64 µM), the “MIC Range” value (Shigella spp.) was 0.025 to 0.2 µg/mL and the MIC50 (Shigella spp.; Shigella) was 0.05 µg/mL (≈ 0.103 µM). The MIC90 (Shigella spp.; Shigella) was 0.1 µg/mL (≈ 0.205 µM), the “MIC Range” value (Salmonella spp) was 0.2 to 0.8 µg/mL and the MIC50 (Salmonella spp; Salmonella) was 0.4 µg/mL (≈ 0.821 µM). For the same compound, the MIC90 (Salmonella spp; Salmonella) was 0.4 µg/mL (≈ 0.821 µM), the “MIC90” value (P. aeruginosa) was 3.2 µg/mL (≈ 6.56 µM) and the “MIC Range” value (P. aeruginosa) was 0.2 to 3.2 µg/mL. For the same compound, the “more active than ceftazidime-avibactam” value (P. aeruginosa) was 4- to 8 fold, the MIC50 (P. aeruginosa; Pseudomonas aeruginosa) was 1.6 µg/mL (≈ 3.28 µM) and the MIC90 (P. aeruginosa; Pseudomonas aeruginosa) was 3.2 µg/mL (≈ 6.56 µM). For the same compound, the “MIC90” value (A. baumannii) was 3.2 µg/mL (≈ 6.56 µM), the MIC50 (A. baumannii; Acinetobacter baumannii) was 0.8 µg/mL (≈ 1.64 µM) and the MIC90 (A. baumannii; Acinetobacter baumannii) was 3.2 µg/mL (≈ 6.56 µM). For the same compound, the MIC90 (Enterobacteriaceae) was 0.2 to 0.8 µg/mL (≈ 0.41 to 1.64 µM), the “type of antibacterial effect (kill curve)” value (Y. pestis CO92) was “bacteriostatic effect” and the “survivors at day 21 postchallenge” value (Y. pestis [1]) was 15 out of 15. The “colonization of the lymph nodes, spleen, and blood relative to nontreated controls” value (Y. pestis [1]; iv, 40 mg/kg) was “significantly (P < 0.02) lower colonization”, the survival rate (Y. pestis [1]; iv, 40 mg/kg) was at least 80% and the “bacterial load in skin, lymph nodes, spleen, and blood of survivors” value (Y. pestis [1]; iv, 200 mg/kg) was “sterile”. For the same compound, the posttreatment relapse (Y. pestis [1]; iv, 200 mg/kg) was “only one of the 15 animals”, the half-life at 1 µM [2] was 44 min and the microsomal CLint at 1 µM [2] was 52 µL/min/mg. The “diarrhea and detectable toxicity” value (OF-1 female mice; 5 days, any of the regimens tested (including 200 mg/kg q8h)) was “did not elicit any diarrhea or detectable toxicity”, the half-life ([3]; 40 mg/kg) was 10 min and the distribution volume ([3]; mouse, single intravenous 40-mg/kg dose) was 3.8 L/kg.
In the case of `O=C(O)c1cn(C2CC2)c2cc(N3CCNCC3)c(F)cc2c1=O` [ciprofloxacin], the MIC (Y. pestis [4]) is listed as 0.03 µg/mL (≈ 0.0905 µM).
In the case of `C[C@H]1c2cccc(O)c2C(=O)C2=C(O)[C@]3(O)C(=O)C(C(N)=O)=C(O)[C@@H](N(C)C)[C@@H]3[C@@H](O)[C@@H]21` [doxycycline, reference compound], the “survivors at day 21 postchallenge” value (Y. pestis [1]) is given as 14 out of 15, the “bacterial load in skin, lymph nodes, spleen, and blood of survivors” value (Y. pestis [1]; iv, 50 mg/kg) is given as “sterile” and the MIC (Y. pestis [4]) is given as 0.5 µg/mL (≈ 1.13 µM).
